Measured values taken from US4474764A, “3-Amino-2-hydroxy-4-phenylbutanoic acid derivatives and pharmaceutical composition containing the same” (Zaidan Hojin Biseibutsu Kagaku Kenkyu Kai, priority 1981, dated 1984).

Experiments:
mice of ddy-strain = test: Analgesic activity by the acetic acid-writhing method (Test 3); assay type: in vivo, mouse; settings: for Number of Writhings (Average value ± standard error): 30 minutes before 0.6% acetic acid i.p., counted during 15 minutes; for Suppression of writhing reactions: compared to the control group
Excerpt: Analgesic activity of test compound was estimated according to the acetic acid-writhing method.
Mice groups each containing 10 mice of ddy-strain (male, 5 weeks-aged, average body weight about 20 grams) were employed as the test animal. A suspension of the test compound, D-Phe-AHPA suspended in an aqueous solution containing 0.5% of gum arabic and 7% of an active surfectant (consisting of the reaction products of hydrogenated castor oil with polyoxyethylene, commercially available under a registered tradename "Nikkol HCO-60", a product of Nihon Nyukazai Co., Ltd., Japan) was subcutaneously injected into each mouse at a dosage of 30, 150 or 250 mg/kg of the test compound. The above-mentioned suspension so subcutaneously injected was containing the test compound at such a concentration that 0.2 ml of said suspension as injected into each mouse provided the dosage of 30 mg/kg, 150 mg/kg or 250 mg/kg of the test compound. 30 Minutes later, […] of an aqueous solution of 0.6% of acetic acid was injected intraperitoneally into the mice. 5 Minutes after the injection of the aqueous acetic acid, estimation was commenced to count the number of the writhing reaction of the treated mice (the motions such as abdominal constrictions and extensions of the treated mice as induced by the injection of acetic acid) which took place during the subsequent 15 minutes (see the Japanese medical book "Iyaku Kaihatsu Koza" Vol. 5 pages 282~286, published from Chijin-Shokan in 1971 and an English medicinal journal "Brit. J. Pharmacol." 32, pages 295~310, 1968). For control, another mice groups received the subcutaneous administration of an aqueous solution containing no test compound but containing 0.5% of gum arabic and 7% of the active surfectant (Nikkol HCO-60). The rate (%) of suppressing the writhing reactions was evaluated as compared to the control group. "Students-t-test" was employed for the statistical analysis of the test results.

[1] = system: morphine analgesia-non-effective Wistar rats; test: Effect of enhancing morphine analgesia, tail-flick latency (Test 2); assay type: in vivo, rat
Protocol: Effect of enhancing morphine analgesia was tested.
To Wistar rats (10 week-age, male, body weight 250~300 g) was given intraperitoneally morphine at a dose of 0.5 mg/kg, and these rats receiving the morphine were classified into the group of morphine analgesia-effective rats and the group of morphine analgesia-non-effectiverats according to the classification method described in the "Showa Igakukai Zasshi" Vol. 39, No. 5, pages 537~542 (1979). […] The effect of analgesia was evaluated according to the method of tail-flick latency of rats described in the "Showa Igakukai Zasshi" Vol. 39, No. 5, pages 537~542 (1979). The evaluation of pain threshold of rats according to the tail-flick latency method was made as follows: Radiant heat stimulus was applied to the region of the rat tail which positioned 1 cm away from the tail tip and which had been colored black with a black-dye, and the time of latency involved in the tail flick, namely the period of time lapsing between the time of application of the heat stimulus and the time of the reflective flick response of the tail was measured. The quantity of the heat applied was so controlled that the average time of latency of the tail-flick response appearing in the control group of rats (receiving neither the test compound nor the morphine) was about 2.0 seconds. The tests were accomplished as long as the maximum value for the tail-flick latency was 7.0 seconds or less, as otherwise the skin of the rat tail could be damaged by the application of heat. In other words, if the time for the tail-flick latency was longer than 7.0 seconds, the tests were stopped to prevent the damage of the rat tail. The radiant heat stimulus was repeated 5 times for each test rat at an interval of 15 minutes and the times of latency in the flick response of the tail measured in each test were averaged. In each test, 5 rats were used.
The difference in the time of the tail-flick latency between the test rats (receiving 250 mg/kg of the test compound plus 0.5 mg/kg of morphine) and the control rats (receiving 0.5 mg/kg of morphine alone) was calculated, and the effect for enhancement of morphine analgesia was estimated in term of the value of percentages which were calculated by the following equation: [formula]

enkephalinase = biological target: T1, enkephalinase (Rattus norvegicus, UniProt P07861); test: Inhibitory activity against enkephalinase (Test 1); assay type: biochemical; settings: enkephalinase from corpus striatum of rat brain; substrate methionine-enkephaline; 37° C., 1 hour; pH 7.7
T1 construct: homogenizing corpus striatum of rat brain and by partial purification of the brain homogenate; from tissue; host or cells: rat brain corpus striatum, homogenate partially purified by the method of Gorenstein et al
T1 sequence (P07861 1-750): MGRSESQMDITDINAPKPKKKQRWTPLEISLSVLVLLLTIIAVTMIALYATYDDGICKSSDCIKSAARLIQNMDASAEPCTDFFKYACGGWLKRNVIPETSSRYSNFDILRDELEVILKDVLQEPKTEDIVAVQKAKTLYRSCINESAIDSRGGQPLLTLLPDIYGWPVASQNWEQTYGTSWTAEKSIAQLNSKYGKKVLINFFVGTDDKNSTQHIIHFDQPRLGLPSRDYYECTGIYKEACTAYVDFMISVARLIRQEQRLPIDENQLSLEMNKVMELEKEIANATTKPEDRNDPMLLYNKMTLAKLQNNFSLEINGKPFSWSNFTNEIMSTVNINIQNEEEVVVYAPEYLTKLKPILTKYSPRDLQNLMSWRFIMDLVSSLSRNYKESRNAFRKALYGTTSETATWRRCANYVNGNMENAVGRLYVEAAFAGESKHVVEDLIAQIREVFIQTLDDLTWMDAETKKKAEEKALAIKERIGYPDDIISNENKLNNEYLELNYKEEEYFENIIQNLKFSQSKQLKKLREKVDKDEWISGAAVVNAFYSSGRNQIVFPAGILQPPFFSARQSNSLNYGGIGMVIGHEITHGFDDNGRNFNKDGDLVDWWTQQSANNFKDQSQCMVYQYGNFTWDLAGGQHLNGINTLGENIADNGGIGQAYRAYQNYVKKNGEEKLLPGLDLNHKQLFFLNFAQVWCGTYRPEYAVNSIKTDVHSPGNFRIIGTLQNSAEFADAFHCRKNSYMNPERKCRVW
Protocol: Inhibitory activity against enkephalinase were tested.
A preparation of enkephalinase was made by homogenizing corpus striatum of rat brain and by partial purification of the brain homogenate according to the method of Gorenstein et al (see the "Life Science" Vol. 25, 2065~2070 (1979) Pergamon Press, U.S.A.).
A test compound was dissolved in a mixture of Trishydrochloride buffered solution (pH 7.7) and an aqueous 1% Triton X100 (an active surfectant) to such a concentration that the added quantity of the test compound amounted to one-tenth of the volume of said mixture. To the solution of the test compound so prepared was added the enkephalinase, followed by incubation for five minutes at ambient temperature and further by addition of methionine-enkephaline as the substrate. The admixture so obtained was incubated at 37° C. for 1 hour and then subjected to a high-performance liquid chromatography in such a manner that the Tyr-Gly-GLy (a fragment of the methionine-enkephaline) formed by the enzymatic degradation of methionine-enkephaline was isolated in some fractions of the eluate and the quantity of Tyr-Gly-GLy was determined by an electro-chemically analysing detector. In this way, IC50 value of the test compound, namely the dose of the test compound required for 50% inhibition of the enkephalinase was measured.

[2] = system: morphine analgesia-non-effective Wistar rats; test: Effect of enhancing morphine analgesia, tail-flick latency (Test 2); assay type: in vivo, rat; remark: listed apart in the source

`N[C@H](Cc1ccccc1)C(=O)N[C@H](Cc1ccccc1)[C@H](O)C(=O)O` [Compound 10, (2S,3R)-3-N--(R)-phenylalanylamino-2-hydroxy-4-phenylbutanoic acid] was tested, and the “Number of Writhings (Average value ± standard error)” value (mice of ddy-strain; 30 mg/kg s.c.) was 48.3 ± 3.7, the “Suppression of writhing reactions” value (mice of ddy-strain; 30 mg/kg s.c.) was 37.4% and the “Number of Writhings (Average value ± standard error)” value (mice of ddy-strain; 150 mg/kg s.c.) was 43.9 ± 3.8. The “Suppression of writhing reactions” value (mice of ddy-strain; 150 mg/kg s.c.) was 43.1%, the “Number of Writhings (Average value ± standard error)” value (mice of ddy-strain; 250 mg/kg s.c.) was 31.3 ± 8.0 and the “Suppression of writhing reactions” value (mice of ddy-strain; 250 mg/kg s.c.) was 59.4%. For the same molecule, the “Dose dependence of suppression of acetic acid-writhing reaction” value (mice of ddy-strain; 30, 150 or 250 mg/kg s.c., compound alone) was “suppressed the acetic acid-writhing reaction in the dosage-depending manner”, the “Morphine Analgesia enhancement” value ([1]; 250 mg/kg test compound i.p., 10 minutes later 0.5 mg/kg morphine i.p., versus 0.5 mg/kg morphine alone, tail-flick latency) was 35.0% and the IC50 (enkephalinase) was 740 µM.

`CN1CC[C@]23c4c5ccc(O)c4O[C@H]2[C@@H](O)C=C[C@H]3[C@H]1C5` [Morphine, morphine] was tested, and the “Morphine Analgesia enhancement” value ([2]; morphine alone 2 mg/kg (comparative)) was 28.4%, the “Morphine Analgesia enhancement” value ([2]; morphine alone 3 mg/kg (comparative)) was 35.1% and the “Morphine Analgesia enhancement” value ([1]; morphine alone 0.5 mg/kg (comparative)) was 0%.
